Results taken from patent publication US7816350B2, “Substituted [1,2,3] triazolo[4,5-D]pyrimidines as cdk inhibitors” (Institute of Experimental Botany ASCR, priority 2002, dated 2010).

Assays:
K-562 = assay: In vitro cytotoxic activity, MTT assay, K-562; type: cell-based; conditions: Homo sapiens, K562, 72 hours
p34^cdc2/cyclin B (CDC2) = target: T1, p34^cdc2/cyclin B (CDC2) (Homo sapiens, UniProt P06493); assay: CDK inhibition assay, p34cdc2/cyclin B kinase, histone H1 phosphorylation; type: biochemical
T1 construct: made in house; host or cells: Sf9 insect cells (baculovirus co-infection)
Method: (§1) Cyclin-dependent kinases (p34^cdc2, p33^cdk2) and cyclins (cyclin B, E) are produced in Sf9 insect cells coinfected with appropriate baculoviral constructs. The cells are harvested 68-72 hrs post infection in lysis buffer for 30 min on ice and the soluble fraction is recovered by centrifugation at 14.000 g for 10 min. The protein extract is stored at −80° C.
(§2) Lysis buffer: 50 mM Tris pH 7.4, 150 mM NaCl, 5 mM EDTA, 20 mM NaF, 1% Tween, 1 mM DTT, 0.1 mM PMSF, leupeptine, aprotonine.
(§3) To carry out experiments on kinetics under linear conditions, the final point test system for kinase activity measurement is used. The kinase is added to reaction mixture in such a way as to obtain linear activity with respect to the concentration of enzyme and with respect to time.
(§4) The p34^cdc2 and p33^cdk2 kinase inhibition determination involves the use of 1 mg/ml histone H1 (Sigma, type III-S) in the presence of 15 μM [γ-^32P]ATP ([…]) (Amersham) in a final volume of 20 μl. Kinase activity is determined at 30° C. in the kinase buffer.
(§5) Tested compounds are usually dissolved to 100 mM solutions in DMSO, final concentration of DMSO in reaction mixture never exceeds 1%. The controls contain suitable dilutions of DMSO.
(§6) After 10 min, addition 3×SDS sample buffer stops the incubations. Phosphorylated proteins are separated electrophoretically using 12.5% SDS polyacrylamide gel. The measurement of kinase activity is done using digital image analysis.
(§7) The kinase activity is expressed as a percentage of maximum activity, the apparent inhibition constants are determined by graphic analysis (FIG. 1).
(§8) Kinase buffer: 50 mM Hepes pH 7.4, 10 mM MgCl2, 5 mM EGTA, 10 mM 2-glycerolphosphate, 1 mM NaF, 1 mM DTT

MCF7 = assay: In vitro cytotoxic activity, MTT assay, MCF7; type: cell-based; conditions: Homo sapiens, 72 hours
Text: One of the parameters used, as the basis for colorimetric assays is the metabolic activity of viable cells. For example, a microtiter assay, which uses the tetrazolium salt MTT, is now widely used to quantitate cell proliferation and cytotoxicity. For instance, this assay is used in drug screening programs and in chemosensitivity testing. Because only metabolically active cells cleave tetrazolium salts, these assays detect viable cells exclusively. In the case of MTT assay, yellow soluble tetrazolium salt is reduced to coloured water-insoluble formazan salt. After it is solubilized, the formazan formed can easily and rapidly be quantified in a conventional ELISA plate reader at 570 nm (maximum absorbance). The quantity of reduced formazan corresponds to number of vital cells in the culture.
Human T-lymphoblastic leukemia cell line CEM; promyelocytic HL-60 and monocytic U937 leukemias; breast carcinoma cell lines MCF-7, BT549, MDA-MB-231; glioblastoma U87MG cells; cervical carcinoma cells HELA; sarcoma cells U2OS and Saos2; hepatocellular carcinoma HepG2; mouse immortalized bone marrow macrophages B2.4 and B10A.4; P388D1 and L1210 leukemia; B16 and B16F10 melanomas were used for routine screening of compounds. The cells were maintained in Nunc/Corning 80 cm^2 plastic tissue culture flasks and cultured in cell culture medium (DMEM with 5 g/l glucose, 2 mM glutamine, 100 U/ml penicillin, 100 μg/ml streptomycin, 10% fetal calf serum and sodium bicarbonate).
The cell suspensions that were prepared and diluted according to the particular cell type and the expected target cell density (2.500-30.000 cells per well based on cell growth characteristics) were added by pipette (80 μl) into 96/well microtiter plates. Inoculates were allowed a pre-incubation period of 24 hours at 37° C. and 5% CO2 for stabilisation. Four-fold dilutions of the intended test concentration were added at time zero in 20 μl aliquots to the microtiter plate wells. Usually, test compound was evaluated at six 4-fold dilutions. In routine testing, the highest well concentration was 266.7 μM, but it can be the matter of change dependent on the agent. All drug concentrations were examined in duplicates. Incubations of cells with the test compounds lasted for 72 hours at 37° C., in 5% CO2 atmosphere and 100% humidity. At the end of incubation period, the cells were assayed by using the MTT. Ten microliters of the MTT stock solution were pipetted into each well and incubated further for 1-4 hours. After this incubation period, formazan was solubilized by addition of 100 μl/well of 10% SDS in water (pH=5.5) followed by further incubation at 37° C. overnight. The optical density (OD) was measured at 540 nm with the Labsystem iEMS Reader MF (UK). The tumour cell survival (TCS) was calculated using the following equation: TCS=(ODdrug exposed well/mean ODcontrol wells)×100%. The IC50 value, the drug concentration lethal to 50% of the tumour cells, was calculated from the obtained dose response curves (FIG. 2).

IκB-α kinase = IκB-α kinase inhibitory activity, in vitro kinase assay; type: biochemical
p33^cdk2 (cyclin E) = target: T2, p33^cdk2 (cyclin E) (Homo sapiens, UniProt P24941); assay: CDK inhibition assay, p33cdk2 kinase, histone H1 phosphorylation; type: biochemical
T2 construct: made in house; host or cells: Sf9 insect cells (baculovirus co-infection)
Method: as §1, §2, §3, §4, §5, §6, §7, §8

CDK9 - cyclin T1 = CDK9 - cyclin T1 (Homo sapiens, UniProt P50750); assay: CDK inhibitory activity, CDK9 - cyclin T1; type: biochemical
Chain of CDK9 - cyclin T1 (P50750 whole entry): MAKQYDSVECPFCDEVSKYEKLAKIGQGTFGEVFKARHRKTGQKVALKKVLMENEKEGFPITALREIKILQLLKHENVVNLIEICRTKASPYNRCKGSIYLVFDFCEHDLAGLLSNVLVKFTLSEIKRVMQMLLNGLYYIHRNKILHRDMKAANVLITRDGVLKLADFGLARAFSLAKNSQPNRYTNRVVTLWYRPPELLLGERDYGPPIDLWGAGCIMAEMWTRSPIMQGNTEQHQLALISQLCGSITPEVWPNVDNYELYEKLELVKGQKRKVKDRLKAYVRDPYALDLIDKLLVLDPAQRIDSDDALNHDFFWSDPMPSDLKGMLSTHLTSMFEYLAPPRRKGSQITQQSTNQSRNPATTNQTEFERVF
Chain of CDK9 - cyclin T1 (O60563 whole entry partner): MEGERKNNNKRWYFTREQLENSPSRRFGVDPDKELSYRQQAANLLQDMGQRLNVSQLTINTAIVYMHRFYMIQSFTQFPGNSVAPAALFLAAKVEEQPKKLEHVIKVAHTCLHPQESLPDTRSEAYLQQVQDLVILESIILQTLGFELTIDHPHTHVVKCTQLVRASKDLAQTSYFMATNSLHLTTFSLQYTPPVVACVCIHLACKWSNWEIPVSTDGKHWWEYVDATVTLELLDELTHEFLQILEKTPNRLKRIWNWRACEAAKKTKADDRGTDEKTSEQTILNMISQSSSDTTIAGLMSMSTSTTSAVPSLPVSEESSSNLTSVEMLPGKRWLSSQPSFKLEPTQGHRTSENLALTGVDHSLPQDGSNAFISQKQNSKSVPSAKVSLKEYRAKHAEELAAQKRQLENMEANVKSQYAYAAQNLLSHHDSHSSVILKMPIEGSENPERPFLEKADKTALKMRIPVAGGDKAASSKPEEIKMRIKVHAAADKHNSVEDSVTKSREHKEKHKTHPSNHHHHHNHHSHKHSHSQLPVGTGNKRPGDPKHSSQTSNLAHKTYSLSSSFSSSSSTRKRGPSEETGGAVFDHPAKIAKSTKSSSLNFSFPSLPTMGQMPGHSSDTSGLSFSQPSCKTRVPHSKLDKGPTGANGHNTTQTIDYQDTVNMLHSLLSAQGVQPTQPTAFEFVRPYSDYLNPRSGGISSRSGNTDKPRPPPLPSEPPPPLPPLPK

T1 sequence (P06493 whole entry, species assumed): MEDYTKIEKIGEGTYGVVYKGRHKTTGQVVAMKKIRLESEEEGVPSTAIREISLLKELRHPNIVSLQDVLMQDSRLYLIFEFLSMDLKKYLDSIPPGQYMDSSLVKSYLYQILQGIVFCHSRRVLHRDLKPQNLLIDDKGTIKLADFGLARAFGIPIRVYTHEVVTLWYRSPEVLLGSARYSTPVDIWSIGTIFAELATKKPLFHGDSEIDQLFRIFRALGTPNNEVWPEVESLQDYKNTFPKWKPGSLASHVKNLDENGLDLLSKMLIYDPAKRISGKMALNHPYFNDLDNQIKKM
T1 sequence (P14635 whole entry partner, species assumed): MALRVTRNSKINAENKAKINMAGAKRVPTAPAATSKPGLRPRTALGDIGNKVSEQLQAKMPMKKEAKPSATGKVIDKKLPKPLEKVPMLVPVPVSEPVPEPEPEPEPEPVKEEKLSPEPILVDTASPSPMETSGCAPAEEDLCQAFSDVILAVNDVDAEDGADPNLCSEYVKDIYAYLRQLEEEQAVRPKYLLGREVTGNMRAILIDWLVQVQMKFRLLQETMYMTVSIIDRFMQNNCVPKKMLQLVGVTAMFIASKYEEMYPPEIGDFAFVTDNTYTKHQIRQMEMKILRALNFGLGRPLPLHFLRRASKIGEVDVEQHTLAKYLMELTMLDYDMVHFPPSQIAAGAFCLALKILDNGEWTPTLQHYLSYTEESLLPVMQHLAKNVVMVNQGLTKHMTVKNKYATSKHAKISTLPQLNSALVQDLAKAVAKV

| Structure (SMILES) | IC50 (K-562) | IC50 (p34^cdc2/cyclin B (CDC2)) | IC50 (MCF7) | IC50 (IκB-α kinase) | IC50 (p33^cdk2 (cyclin E)) | IC50 (CDK9 - cyclin T1) |
| --- | --- | --- | --- | --- | --- | --- |
| CC(C)[C@H](CO)Nc1nc(Nc2ccc(Cl)c(N)c2)c2nnn(C(C)C)c2n1 | 18.8 µM | 24 µM | 16.4 µM | – | – | – |
| CC(=O)Oc1cccc(CNc2nc(N[C@@H](CO)C(C)C)nc3c2nnn3C(C)C)c1 | 31.7 µM | 20 µM | 28.2 µM | > 100 µM | – | – |
| Cn1nnc2c(Nc3cc(N)cc(Cl)c3)nc(NCCO)nc21 | – | 50 µM | – | > 100 µM | – | – |
| CC(C)[C@H](CO)Nc1nc(Nc2cc(N)cc(Cl)c2)c2nnn(C(C)C)c2n1 | – | 27 µM | – | 80 µM | – | – |
| Cc1cccc(CNc2nc(N[C@@H](CO)C(C)C)nc3c2nnn3C(C)C)c1O | – | 18 µM | – | 55 µM | – | – |
| CC(C)[C@H](CO)Nc1nc(NCc2cccc(Cl)c2O)c2nnn(C(C)C)c2n1 | – | 32 µM | – | 60 µM | – | – |
| CC(=O)c1ccccc1CNc1nc(NCCO)nc2c1nnn2C | – | 70 µM | – | > 100 µM | – | – |
| CC(C)n1nnc2c(Nc3cccc(Cl)c3)nc(NC3CCC(N)CC3)nc21 (centres unmarked) | – | – | – | – | 3.1 µM | 1.1 µM |
| CC(C)[C@H](CO)Nc1nc(NCc2ccccc2O)c2nnn(C(C)C)c2n1 | 25 µM | 7 µM | 24 µM | > 100 µM | – | – |
| CC(=O)c1cccc(CNc2nc(NCCO)nc3c2nnn3C)c1 | – | 80 µM | – | > 100 µM | – | – |
| Cn1nnc2c(Nc3ccc(Cl)c(N)c3)nc(NCCO)nc21 | – | > 100 µM | – | > 100 µM | – | – |
| CC(C)n1nnc2c(NCc3ccccc3)nc(N(CCO)CCO)nc21 | – | 95 µM | – | > 100 µM | – | – |
| CC[C@H](CO)Nc1nc(NCc2ccc(OC)c(O)c2O)c2nnn(C(C)C)c2n1 | – | 14 µM | – | > 100 µM | – | – |
| CC[C@H](CO)Nc1nc(NCc2cccc(OC(C)=O)c2)c2nnn(C(C)C)c2n1 | – | 24 µM | – | > 100 µM | – | – |
| CC[C@H](CO)Nc1nc(NCc2cccc(C)c2O)c2nnn(C(C)C)c2n1 | – | 34 µM | – | 80 µM | – | – |
| CC(C)n1nnc2c(NCc3ccccc3O)nc(NC3CCC(N)CC3)nc21 (centres unmarked) | – | – | – | – | 27.7 µM | 14.7 µM |
| CC(C)[C@H](CO)Nc1nc(NCc2cc(O)c(Cl)cc2O)c2nnn(C(C)C)c2n1 | – | 8 µM | – | > 100 µM | – | – |
| CC(C)[C@H](CO)Nc1nc(Nc2ccccc2)c2nnn(C(C)C)c2n1 | 100 µM | 40 µM | 80 µM | – | – | – |
| CC(=O)Oc1ccccc1CNc1nc(N[C@@H](CO)C(C)C)nc2c1nnn2C(C)C | 24 µM | 10 µM | 24.1 µM | 85 µM | – | – |
| Cn1nnc2c(NC(CO)c3ccccc3)nc(NCCO)nc21 (racemic) | – | 80 µM | – | > 100 µM | – | – |
| CC(C)n1nnc2c(NCc3ccccc3)nc(NCCCO)nc21 [2-(3-Hydroxypropylamino)-6-benzylamino-9-isopropyl-8-azapurine] | – | > 100 µM | – | > 100 µM | – | – |
| Cn1nnc2c(Nc3ccc(Cl)cc3)nc(NCCO)nc21 | – | > 100 µM | – | > 100 µM | – | – |
| Cn1nnc2c(NCc3ccccc3)nc(NC3CCC(N)CC3)nc21 (centres unmarked) | – | 16 µM | – | 40 µM | – | – |
| CC(C)[C@H](CO)Nc1nc(NCc2c(N)cccc2Cl)c2nnn(C(C)C)c2n1 | – | 10 µM | – | > 100 µM | – | – |
